Target: T1, SHP2 full-length protein (Homo sapiens, UniProt Q06124)
T1 construct: purchased BPS Bioscience #79330
T1 sequence (Q06124 1-593): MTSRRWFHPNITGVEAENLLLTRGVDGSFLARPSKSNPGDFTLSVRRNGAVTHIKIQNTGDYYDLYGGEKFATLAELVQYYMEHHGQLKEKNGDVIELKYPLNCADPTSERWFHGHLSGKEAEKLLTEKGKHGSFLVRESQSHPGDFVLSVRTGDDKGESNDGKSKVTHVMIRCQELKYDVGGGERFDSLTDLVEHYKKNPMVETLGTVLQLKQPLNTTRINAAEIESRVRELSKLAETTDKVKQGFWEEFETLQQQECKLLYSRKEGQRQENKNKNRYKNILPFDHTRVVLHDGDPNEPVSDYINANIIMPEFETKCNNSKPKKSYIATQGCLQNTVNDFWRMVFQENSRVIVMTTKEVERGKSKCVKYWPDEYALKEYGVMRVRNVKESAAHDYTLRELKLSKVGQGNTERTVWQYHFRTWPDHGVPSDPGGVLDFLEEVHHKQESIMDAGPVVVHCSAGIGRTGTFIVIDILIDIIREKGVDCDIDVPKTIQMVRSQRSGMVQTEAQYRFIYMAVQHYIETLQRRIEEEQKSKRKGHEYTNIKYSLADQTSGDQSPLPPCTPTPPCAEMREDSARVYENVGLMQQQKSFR
Experiment: SHP2 allosteric inhibition experiment (Homogeneous Full Length SHP-2 Assay Kit)
Type: biochemical
Details: full-length SHP2 0.06 nM with SHP-2 activating peptide; ten-point, 1 μM to 0.05 nM; read-out: IC50 Values of Compounds Inhibiting SHP2

Row | Compound | IC50
1 | CC(C)n1ccc(-c2cccc(Sc3ncc(N4CCC5(CC4)CO[C@@H](C)[C@H]5N)cn3)c2Cl)n1 [Compound 101, (3S,4S)-8-(2-((2-chloro-3-(1-isopropyl-1H-pyrazole-3-yl)phenyl)mercapto)pyrimidine-5-yl)-3-methyl-2-oxa-8-azaspiro[4.5]decane-4-amine] | ≤ 0.01 µM
2 | Nc1nccc(-n2c(=O)[nH]c3nc(N4CCC5(CC4)Cc4cccnc4[C@H]5N)cnc3c2=O)c1Cl [Compound 22, (S)-3-(2-amino-3-chloropyridine-4-yl)-7-(7-amino-5,7-dihydrospiro[cyclopenta[b]pyridine-6,4′-piperidine]-1′-yl)pteridine-2,4(1H,3H)-dione] | ≤ 0.01 µM
3 | C[C@@H]1OCC2(CCN(c3cnc4nc(Sc5cccc(NC(=O)c6c(O)nc7n(c6=O)CCCC7)c5Cl)ncc4n3)CC2)[C@@H]1N [Compound 87, N-(3-((6-((3S,4S)-4-amino-3-methyl-2-oxa-8-azaspiro[4.5]decane-8-yl)pteridine-2-yl)mercapto)-2-chlorophenyl)-2-hydroxy-4-oxo-6,7,8,9-tetrahydro-4H-pyridinyl[1,2-a]p yrimidine-3-carboxamide] | ≤ 0.01 µM
4 | N[C@@H]1c2ccncc2CC12CCN(c1ccc3c(=O)n(-c4cccc(Cl)c4Cl)c(=O)[nH]c3n1)CC2 [Compound 26, (S)-7-(5-Amino-5,7-dihydrospiro [cyclopenta[c]pyridine-6,4′-piperidine]-1′-yl)-3-(2,3-dichlorophenyl)pyridinyl[2,3-d]pyrimidine-2,4(1H,3H)-dione] | ≤ 0.01 µM
5 | C[C@@H]1OCC2(CCN(c3ncc(Sc4cccc(-c5cnccn5)c4Cl)nn3)CC2)[C@@H]1N [Compound 135, (3S,4S)-8-(6-((2-chloro-3-(pyrazine-2-yl)phenyl)mercapto)-1,2,4-triazine-3-yl)-3-methyl-2-oxa-8-azaspiro[4.5]decane-4-amine] | ≤ 0.01 µM
6 | C[C@@H]1OCC2(CCN(c3ccc4nc(Sc5cccc(-c6cnccn6)c5Cl)ncc4n3)CC2)[C@@H]1N [Compound 74, (3S,4S)-8-(2-((2-chloro-3-(pyrazine-2-yl)phenyl)mercapto)pyridinyl[3,2-d]pyrimidine-6-yl)-3-methyl-2-oxa-8-azaspiro[4.5]decane-4-amine] | ≤ 0.01 µM
7 | C[C@@H]1OCC2(CCN(c3cnc(Sc4cccc(NC(=O)c5c(O)nc6n(c5=O)CCCC6)c4Cl)nc3)CC2)[C@@H]1N [Compound 102, N-(3-((5-((3S,4S)-4-amino-3-methyl-2-oxa-8-azaspiro[4.5]decane-8-yl)pyrimidine-2-yl)mercapto)-2-chlorobenzene)-2-hydroxyl-4-oxa-6,7,8,9-tetrahydro-4H-pyridinyl[1,2-a]pyrimidine-3-carboxamide] | ≤ 0.01 µM
8 | C[C@@H]1OCC2(CCN(c3ccc4nc(Sc5cccc(-c6ccn(C)n6)c5Cl)cnc4n3)CC2)[C@@H]1N [Compound 91, (3S,4S)-8-(2-((2-chloro-3-(1-methyl-1H-pyrazole-3-yl)phenyl)mercapto)pyridinyl[2,3-b]pyrazine-6-yl)-3-methyl-2-oxa-8-azaspiro[4.5]decane-4-amine] | ≤ 0.01 µM
9 | C[C@@H]1OCC2(CCN(c3ncc4nc(Sc5cccc(NC(=O)c6c(O)nc7n(c6=O)CCCC7)c5Cl)cnc4n3)CC2)[C@@H]1N [Compound 88, N-(3-((2-((3S,4S)-4-amino-3-methyl-2-oxa-8-azaspiro[4.5]decane-8-yl)pteridine-6-yl)mercapto)-2-chlorophenyl)-2-hydroxy-4-oxo-6,7,8,9-tetrahydro-4H-pyridinyl[1,2-a]p yrimidine-3-carboxamide] | ≤ 0.01 µM
10 | C[C@@H]1OCC2(CCN(c3ncc(Sc4cccc(NC(=O)c5ccncn5)c4Cl)cn3)CC2)[C@@H]1N [Compound 124, N-(3-((2-((3S,4S)-4-amino-3-methyl-2-oxa-8-azaspiro[4.5]decane-8-yl of 1)pyrimidine-5-yl)mercapto)-2-chlorophenyl)pyrimidine-4-carboxamide] | ≤ 0.01 µM
11 | C[C@@H]1OCC2(CCN(c3cnc(Sc4cccc(Nc5ccncn5)c4Cl)nc3)CC2)[C@@H]1N [Compound 110, (3S,4S)-8-(2-((2-chloro-3-(pyrimidine-4-amino)phenyl)mercapto)pyrimidine-5-yl)-3-methyl-2-oxa-8-azaspiro[4.5]decane-4-amine] | 0.01 to 0.1 µM
12 | C[C@@H]1OCC2(CCN(c3cnc(Sc4cccc(-c5ccncn5)c4Cl)nc3)CC2)[C@@H]1N [Compound 106, (3S,4S)-8-(2-((2-chloro-3-(pyrimidine-4-yl)phenyl)mercapto)pyrimidine-5-yl)-3-methyl-2-oxa-8-azaspiro[4.5]decane-4-amine] | ≤ 0.01 µM
13 | CC(C)n1ccc(-c2cccc(Sc3ncc4nc(N5CCC6(CC5)CO[C@@H](C)[C@H]6N)ccc4n3)c2Cl)n1 [Compound 71, (3S,4S)-8-(2-((2-chloro-3-(1-isopropyl-1H-pyrazole-3-yl)phenyl)mercapto)pyridinyl[3,2-d]pyrimidine-6-yl)-3-methyl-2-oxa-8-azaspiro[4.5]decane-4-amine] | ≤ 0.01 µM
14 | C[C@@H]1OCC2(CCN(c3cnc4c(=O)n(-c5ccnc(N)c5Cl)c(=O)[nH]c4n3)CC2)[C@@H]1N [Compound 17, 3-(2-amino-3-chloropyridine-4-yl)-7-((3S,4S)-4-amino-3-methyl-2-oxa-8-azaspiro[4.5]decane-8-yl)pteridine-2,4(1H,3H)-dione] | ≤ 0.01 µM
15 | C[C@@H]1OCC2(CCN(c3cnc4nc(Sc5cccc(NC(=O)c6c(O)nc7n(c6=O)CCCC7)c5Cl)ccc4n3)CC2)[C@@H]1N [Compound 98, N-(3-((2-((3S,4S)-4-amino-3-methyl-2-oxa-8-azaspiro[4.5]decane-8-yl)pyridinyl[2,3-b]pyrazine-6-yl)mercapto)-2-chlorophenyl)-2-hydroxy-4-oxo-6,7,8,9-tetrahydro-4H-p yridinyl[1,2-a]pyrimidine-3-carboxamide] | ≤ 0.01 µM
16 | C[C@@H]1OCC2(CCN(c3ncc4nc(Sc5cccc(NC(=O)c6cnccn6)c5Cl)cnc4n3)CC2)[C@@H]1N [Compound 85, N-(3-((2-((3S,4S)-4-amino-3-methyl-2-oxa-8-azaspiro[4.5]decane-8-yl)pteridine-6-yl)mercapto)-2-chlorophenyl)pyrazine-2-carboxamide] | ≤ 0.01 µM
17 | C[C@@H]1OCC2(CCN(c3cnc4nc(Sc5cccc(-c6ccncn6)c5Cl)ncc4n3)CC2)[C@@H]1N [Compound 75, (3S,4S)-8-(2-((2-chloro-3-(pyrimidine-4-yl)phenyl)mercapto)pteridine-6-yl)-3-methyl-2-oxa-8-azaspiro[4.5]decane-4-amine] | ≤ 0.01 µM
18 | C[C@@H]1OCC2(CCN(c3cnc(Sc4cccc(-c5cnccn5)c4Cl)nn3)CC2)[C@@H]1N [Compound 134, (3S,4S)-8-(3-((2-chloro-3-(pyrazine-2-yl)phenyl)mercapto)-1,2,4-triazine-6-yl)-3-methyl-2-oxa-8-azaspiro[4.5]decane-4-amine] | ≤ 0.01 µM

Source: patent publication US20240270759A1, “Preparation of SHP2 phosphatase inhibitors and its applications” (Ya Therapeutics Inc, priority 2021, published 2024)
